Experimental data published in article PMC7904233 (Journal of medicinal chemistry, 2020).
Where two headings read alike, the source gives them in different places.

Assays:
[1] = test system: pEBOV Zaire (Mayinga variant); assay: microbe, parasite or virus in culture; format: cell-based, Zaire ebolavirus; details: for IC50: read-out: IC50 (μM) pEBOV
ER = details: cited from earlier work; for Kd: read-out: Kd for ER
[2] = test system: infectious EBOV Zaire (Kikwit variant); format: cell-based, Zaire ebolavirus
pMARV (Musoke variant) = assay: microbe, parasite or virus in culture; format: cell-based, Marburg virus; details: read-out: IC50 (μM) pMARV
ERα = format: cell-based, human
pRESTV = format: cell-based, ebolavirus Reston
pTFV = format: cell-based, ebolavirus Tai Forest
pMLAV = format: cell-based, Měnglà virus
pAIV-H5N1 = format: cell-based, H5N1 avian influenza virus
pVSV = format: cell-based, vesicular stomatitis virus
[3] = test system: infectious MARV (Angola variant); format: cell-based, Marburg virus
[4] = Human immunodeficiency virus 1, A549, 48 h

CN(C)CCOc1ccc(/C(=C(/CCCl)c2ccccc2)c2ccccc2)cc1 [Compound 1, Toremifene]
IC50 [1, 4]: < 0.1 µM

CC/C(=C(\c1ccccc1)c1ccc(OCCN(C)C)cc1)c1ccccc1 [Compound 5, Tamoxifen]
ER affinity (ER): 13.8 nM

COc1ccc2c(c1)CCC(c1ccccc1)=C2c1ccc(OCCN2CCCC2)cc1 [Compound 6, Nafoxidine]
IC50 [1, 4]: 0.1 ± 0.009 µM

Cc1c(-c2ccc(O)cc2)nn(-c2ccc(O)cc2)c1-c1ccc(OCCN2CCCCC2)cc1 [Compound 23, MPP]
Kd (ER): 1.8 nM

CC/C(=C(/c1ccc(N)cc1)c1ccc(OCCN2CCCC2)cc1)c1ccccc1 [Compound 27, (E)-4-(2-phenyl-1-(4-(2-(pyrrolidin-1-yl)ethoxy)phenyl)but-1-en-1-yl)aniline]
fold weaker than 9 [2]: 10 fold

CC/C(=C(/c1ccc(NCCN2CCCC2)cc1)c1ccc(OCCN2CCCC2)cc1)c1ccccc1 [Compound 28, (E)-4-(2-phenyl-1-(4-(2-(pyrrolidin-1-yl)ethoxy)phenyl)but-1-en-1-yl)-N-(2-(pyrrolidin-1-yl)ethyl)aniline]
IC50 (pMARV (Musoke variant); [4]): > 12.5 µM

CC/C(=C(/c1ccc(NC(=O)C2CCN(C)C2)cc1)c1ccc(OCCN2CCCC2)cc1)c1ccccc1 (stereo not drawn) [Compound 32, (E)-1-methyl-N-(4-(2-phenyl-1-(4-(2-(pyrrolidin-1-yl)ethoxy)phenyl)but-1-en-1-yl)phenyl)pyrrolidine-3-carboxamide]
antagonist activity at ER (in words) (ERα): no antagonist activity
inhibition of viral entry (in words) (pRESTV): improved potency
inhibition of viral entry (in words) (pTFV): improved potency
inhibition of viral entry (in words) (pMLAV): improved potency
inhibition of pAIV-H5N1 (in words) (pAIV-H5N1): Neither compounds showed appreciable inhibition
inhibition of pVSV (in words) (pVSV): Neither compounds showed appreciable inhibition

(E)-1-methyl-N-(4-(2-phenyl-1-(4-(2-(pyrrolidin-1-yl)ethoxy)phenyl)but-1-en-1-yl)phenyl)piperidine-4-carboxamide [Compound 30]
IC50 [1]: 0.01 ± 0.005 µM
IC50 (pMARV (Musoke variant)): 0.54 ± 0.05 µM
fold more potent than 1 [2]: 10 fold
IC50 ([2]; read-out: IC50 (μM) EBOV): 0.09 ± 0.03 µM
fold more potent than 1 [3]: 6 fold
IC50 ([3]; read-out: IC50 (μM) MARV): 0.64 ± 0.12 µM
antagonist activity at ER (in words) (ERα): no antagonist activity
inhibition of viral entry (in words) (pRESTV): improved potency
inhibition of viral entry (in words) (pTFV): improved potency
inhibition of viral entry (in words) (pMLAV): improved potency
inhibition of pAIV-H5N1 (in words) (pAIV-H5N1): Neither compounds showed appreciable inhibition
inhibition of pVSV (in words) (pVSV): Neither compounds showed appreciable inhibition

Acolbifene [Compound 10]
fold weaker than 1 [1]: more than 20 fold
IC50 [1]: 1.5 ± 0.3 µM
